# Assays:
# erythrocytes [1] = experiment: Visual evaluation of hemolysis (time until a clear solution is observed); type: cell-based
# Experimental: Whether the conditions for differential hemolysis are appropriate can be easily and preferably determined by using the following standardized procedure. A whole blood sample with a hematocrit of 40 is diluted 1:10 and then mixed 1:1 with the candidate hemolysis reagent. The efficacy of a reagent for bringing about differential hemolysis is seen visually. Upon lysis of the erythrocytes the mixture becomes clear. If precipitation of sample constituents occurs the sample becomes turbid or viscous or both.
# As indicated above, the conditions used in a method of differential hemolysis according to the present invention can easily be assessed visually. If a whole blood sample is incubated with an appropriate candidate reagent for differential hemolysis the minimal concentration required to hemolyze red blood cells can be recognized as the concentration rendering the turbid blood sample transparent or clear. The highest possible concentration is the one still leading to a transparent and non-viscous sample.
# (§1) Solution A: Fresh EDTA-stabilized whole blood is diluted with 0.15 molar sodium chloride solution in the ratio 1:10 (50 μL EDTA-blood plus 450 μL sodium chloride solution).
# In the case of the addition of a second anion, e.g., iodine (1-Butyl-3-methylpyridiniumchloride/KJ) the stated salt is added in an equimolar amount.
# Hemolysate is prepared by mixing solution A and B in equal volumes, e.g., 500 μL solution A plus 500 μL solution B.
# After mixing the hemolysate is inspected visually for turbidometry and clearness immediately after mixing, after 1 minute, 2, 5, 6, 7, 20 and 40 minutes. The time until a clear solution is observed is recorded.
# erythrocytes [2] = experiment: Microscopic evaluation of hemolysis, Trypane blue staining; type: cell-based; details: 1 in 10 diluted whole blood, reagent 25%
# Experimental: The integrity of red blood cells can for example be easily assessed by appropriate life stains. In a preferred embodiment according to the present invention trypane blue is used in order to assess the integrity of a red blood cell membrane. […] The membrane integrity of a red blood cell is easily assessed under the microscope after staining a sample with trypane blue. The percentage of disrupted red blood cells is calculated by counting intact red blood cells before and after the treatment, by then dividing the first number by the latter number and by then multiplying this value by 100. Red blood cells that are solubilized are referred to as lyzed red blood cells or as lyzed erythrocytes.
# as §1
# Solution B: A solution of the hemolysis reagent in 0.15 molar sodium chloride is prepared where the concentration of the hemolysis reagent is twice as high as the desired final concentration in the hemolysate, e.g., to get a final concentration of 25% of 1-Butyl-4-methylpyridinium tetrafluoroborate a solution of 50% ([…] plus 50 mL 0.15 molar sodium chloride in water) is prepared. […]
# erythrocytes [3] = experiment: Microscopic evaluation of hemolysis, May-Grünwald staining; type: cell-based
# Experimental: Solution A: Fresh EDTA-stabilized whole blood is diluted with 0.15 molar sodium chloride solution in the ratio 1:10 (50 μL EDTA-blood plus 450 μL sodium chloride solution). Solution B: […] Hemolysate is prepared by mixing solution A and B in equal volumes, e.g., 20 μL solution A plus 20 μL solution B After mixing of the hemolysate a droplet is smeared on a microscope slide, air dried at room temperature and stained with May-Grünwald staining reagent (Merck Cat. No. 1.01424 May-Grünwald's Eosin Methylene Blue Solution). […] Microscopy is performed by oil immersion light microscopy (magnification ×630).
# [4] = test system: EDTA-anticoagulated whole blood; experiment: Processing of EDTA-anticoagulated whole blood in a tube with reagent for differential hemolysis (time to optically clear lysate); type: cell-based
# Experimental: This reagent for differential hemolysis thus has a concentration of about 25% BMPBF4. […] 250 microliter of EDTA-anticoagulated whole blood is pipetted into a vial containing 5 milliliter of this lysis reagent. For hemolysis the content of the tube is gently mixed by shaking. An optically clear lysate is obtained within five minutes. The lysate is stored at 4° C. Stability of the lysate is inspected after 1, 4 and 7 days by visual inspection. […] This reagent for differential hemolysis thus has a concentration of about 2% Me-octPCl. 250 microliter of EDTA-anticoagulated whole blood is pipetted into a vial containing 5 milliliter of this lysis reagent. For hemolysis the content of the tube is gently mixed by shaking. An optically clear lysate is obtained within five minutes. The lysate is stored at 4° C. Stability of the lysate is inspected after 1, 4 and 7 days by visual inspection. […] This reagent for differential hemolysis has a concentration of about 15% Me-octPCl. […] For hemolysis the content of the tube is gently mixed by shaking. An optically clear lysate is obtained within five minutes. The lysate is stored at 4° C. Stability of the lysate is inspected after 1, and 2 days by visual inspection. […] This reagent for differential hemolysis has a concentration of about 10% COMPCl. […]
# [5] = in vivo; cited from earlier work
# [6] = cited from earlier work
# [7] = final concentration 25% (weight/volume), whole blood final dilution 1:20
# [8] = final concentration 12.5% (weight/volume)
compound,measurement,setting,value
"CCCC[n+]1cccc(C)c1.[Cl-] [1-Butyl-3-methyl pyridiniumchloride, 1-Butyl-3-methylpyridiniumchloride]",clear after (min.),erythrocytes [1]; [7],turbid
CCCCn1cc[n+](C)c1.F[B-](F)(F)F [1-Butyl-3-methyl-imidazolium tetrafluoroborate],clear after,erythrocytes [1]; [7],20 min
CCCC[n+]1ccc(C)cc1.F[B-](F)(F)F [1-Butyl-4-methylpyridinium tetrafluoroborate],"Light microscopy of hemolyzed whole blood, Trypane blue staining",erythrocytes [2]; 2.5 min incubation time,Only few residual erythrocytes are left
same,"Light microscopy of hemolyzed whole blood, Trypane blue staining",erythrocytes [2]; 15 min incubation time,No erythrocytes or membranes are left
same,clear after (min.),erythrocytes [1]; final concentration 6% (weight/volume),Turbid
same,clear after,erythrocytes [1]; [8],40 min
same,clear after,erythrocytes [1]; [7],20 min
same,"Light microscopy of hemolyzed whole blood, May-Grünwald staining","erythrocytes [3]; 1 in 10 diluted whole blood, reagent 25%","No erythrocytes or membranes are left, nuclei are still intact"
same,time until optically clear lysate is obtained,"[4]; 250 microliter blood into 5 milliliter reagent, about 25% BMPBF4",five
CCCCCC[n+]1ccccc1.[Cl-] [1-Hexylpyridiniumchloride],clear after (min.),erythrocytes [1]; [8],turbid
same,clear after,erythrocytes [1]; [7],7 min
CCCCCCCC[N+]1(C)CCCC1.[Cl-] [1-Methyl-1-octyl pyrrolidiniumchloride],clear after (min.),erythrocytes [1]; final concentration 2.5% (weight/volume),turbid
same,clear after (min.),erythrocytes [1]; [7],immediately
CCCCCCCCOC[n+]1cccc(C(N)=O)c1.[Cl-] [3-Carbamoyl-1-octyloxymethyl pyridiniumchloride],clear after (min.),erythrocytes [1]; final concentration 1.5% (weight/volume),immediately
same,clear after (min.),erythrocytes [1]; final concentration 6.25% (weight/volume),immediately
same,clear after (min.),erythrocytes [1]; [8],immediately
same,time until optically clear lysate is obtained,"[4]; 50 microliter blood into 130 microliter reagent, about 10% COMPCl",five
"COc1c(C)c2c(c(O)c1C/C=C(\C)CCC(=O)OCCN1CCOCC1)C(=O)OC2 [MMF, mycophenolate mofetil]",therapeutic trough concentration,[5],1000 to 3500 µg/L
CCCCCCCC[n+]1ccccc1.[Cl-] [N-Octylpyridiniumchloride],clear after,erythrocytes [1]; [7],2 min
"C=CC[C@@H]1/C=C(\C)C[C@H](C)C[C@H](OC)[C@H]2O[C@@](O)(C(=O)C(=O)N3CCCC[C@H]3C(=O)O[C@H](/C(C)=C/[C@@H]3CC[C@@H](O)[C@H](OC)C3)[C@H](C)[C@@H](O)CC1=O)[C@H](C)C[C@@H]2OC [Tacrolimus, tacrolimus]",therapeutic trough concentration,[5],5 to 20 µg/L
same,potency relative to cyclosporin in vitro,[6],up to 100 times
"CCCCCCCCOS(=O)(=O)[O-].CCCCn1cc[n+](C)c1 [l-Butyl-3-methyl-imidazoliumoctylsulfate, 1-Butyl-3-methyl-imidazoliumoctylsulfate]",clear after (min.),erythrocytes [1]; [7],immediately
"CO[C@H]1C[C@@H]2CC[C@@H](C)[C@@](O)(O2)C(=O)C(=O)N2CCCC[C@H]2C(=O)O[C@H]([C@H](C)C[C@@H]2CC[C@@H](O)[C@H](OC)C2)CC(=O)[C@H](C)/C=C(\C)[C@@H](O)[C@@H](OC)C(=O)[C@H](C)C[C@H](C)/C=C/C=C/C=C/1C [sirolimus, rapamycin]",therapeutic trough concentration,[5],5 to 15 µg/L
"O [water, reference compound]","Light microscopy of hemolyzed whole blood, May-Grünwald staining",erythrocytes [3]; 1 in 10 diluted whole blood hemolyzed with water,Erythrocyte membranes and nuclei are visible
